# Data as given in ChEMBL document CHEMBL1671627, “Increasing trends in antimicrobial resistance among clinically important anaerobes and Bacteroides fragilis isolates causing nosocomial infections: emerging resistance to carbapenems” (2008).
# How the values were obtained:
# Bacteroides fragilis [1] = assay: Antibacterial activity against Bacteroides fragilis assessed as susceptible isolates by CLSI agar dilution method; type: functional
# Bacteroides fragilis [2] = assay: Antibacterial activity against Bacteroides fragilis assessed as resistant isolates by CLSI agar dilution method; type: functional
# [3] = test system: Bacteroides thetaiotaomicron; assay: Antibacterial activity against beta-lactamase producing Bacteroides thetaiotaomicron assessed as susceptible isolates by CLSI agar dilution method; type: functional
# [4] = test system: Bacteroides thetaiotaomicron; assay: Antibacterial activity against beta-lactamase producing Bacteroides thetaiotaomicron assessed as resistant isolates by CLSI agar dilution method; type: functional
# Phocaeicola vulgatus [5] = assay: Antibacterial activity against beta-lactamase producing Bacteroides vulgatus by CLSI agar dilution method; type: functional
# Phocaeicola vulgatus [6] = assay: Antibacterial activity against beta-lactamase producing Bacteroides vulgatus assessed as susceptible isolates by CLSI agar dilution method; type: functional
# Phocaeicola vulgatus [7] = assay: Antibacterial activity against beta-lactamase producing Bacteroides vulgatus assessed as resistant isolates by CLSI agar dilution method; type: functional
# Bacteroides uniformis [8] = assay: Antibacterial activity against beta-lactamase producing Bacteroides uniformis by CLSI agar dilution method; type: functional
# Bacteroides uniformis [9] = assay: Antibacterial activity against beta-lactamase producing Bacteroides uniformis assessed as susceptible isolates by CLSI agar dilution method; type: functional
# Bacteroides uniformis [10] = assay: Antibacterial activity against beta-lactamase producing Bacteroides uniformis assessed as resistant isolates by CLSI agar dilution method; type: functional
# Bacteroides caccae [11] = assay: Antibacterial activity against beta-lactamase producing Bacteroides caccae by CLSI agar dilution method; type: functional
# Bacteroides caccae [12] = assay: Antibacterial activity against beta-lactamase producing Bacteroides caccae assessed as susceptible isolates by CLSI agar dilution method; type: functional
# Bacteroides caccae [13] = assay: Antibacterial activity against beta-lactamase producing Bacteroides caccae assessed as resistant isolates by CLSI agar dilution method; type: functional
# Fusobacterium varium [14] = assay: Antibacterial activity against Fusobacterium varium by CLSI agar dilution method; type: functional
# Fusobacterium nucleatum [15] = assay: Antibacterial activity against Fusobacterium nucleatum by CLSI agar dilution method; type: functional
# Fusobacterium mortiferum [16] = assay: Antibacterial activity against Fusobacterium mortiferum by CLSI agar dilution method; type: functional
# [17] = test system: Fusobacterium necrophorum; assay: Antibacterial activity against Fusobacterium necrophorum by CLSI agar dilution method; type: functional
# Fusobacterium varium [18] = assay: Antibacterial activity against Fusobacterium varium assessed as susceptible isolates by CLSI agar dilution method; type: functional
# Fusobacterium nucleatum [19] = assay: Antibacterial activity against Fusobacterium nucleatum assessed as susceptible isolates by CLSI agar dilution method; type: functional
# Fusobacterium mortiferum [20] = assay: Antibacterial activity against Fusobacterium mortiferum assessed as susceptible isolates by CLSI agar dilution method; type: functional
# [21] = test system: Fusobacterium necrophorum; assay: Antibacterial activity against Fusobacterium necrophorum assessed as susceptible isolates by CLSI agar dilution method; type: functional
# Fusobacterium varium [22] = assay: Antibacterial activity against Fusobacterium varium assessed as resistant isolates by CLSI agar dilution method; type: functional
# Fusobacterium nucleatum [23] = assay: Antibacterial activity against Fusobacterium nucleatum assessed as resistant isolates by CLSI agar dilution method; type: functional
# Fusobacterium mortiferum [24] = assay: Antibacterial activity against Fusobacterium mortiferum assessed as resistant isolates by CLSI agar dilution method; type: functional
# [25] = test system: Fusobacterium necrophorum; assay: Antibacterial activity against Fusobacterium necrophorum assessed as resistant isolates by CLSI agar dilution method; type: functional
# Prevotella buccae [26] = assay: Antibacterial activity against Prevotella buccae by CLSI agar dilution method; type: functional; details: Segatella buccae
# Prevotella bivia [27] = assay: Antibacterial activity against Prevotella bivia by CLSI agar dilution method; type: functional
# Prevotella intermedia [28] = assay: Antibacterial activity against Prevotella intermedia by CLSI agar dilution method; type: functional
# [29] = test system: Prevotella melaninogenica; assay: Antibacterial activity against Prevotella melaninogenica by CLSI agar dilution method; type: functional
# Prevotella buccae [30] = assay: Antibacterial activity against Prevotella buccae assessed as susceptible isolates by CLSI agar dilution method; type: functional, Segatella buccae
# Prevotella bivia [31] = assay: Antibacterial activity against Prevotella bivia assessed as susceptible isolates by CLSI agar dilution method; type: functional
# Prevotella intermedia [32] = assay: Antibacterial activity against Prevotella intermedia assessed as susceptible isolates by CLSI agar dilution method; type: functional
# [33] = test system: Prevotella melaninogenica; assay: Antibacterial activity against Prevotella melaninogenica assessed as susceptible isolates by CLSI agar dilution method; type: functional
# Prevotella buccae [34] = assay: Antibacterial activity against Prevotella buccae assessed as resistant isolates by CLSI agar dilution method; type: functional, Segatella buccae
# Prevotella bivia [35] = assay: Antibacterial activity against Prevotella bivia assessed as resistant isolates by CLSI agar dilution method; type: functional
# Prevotella intermedia [36] = assay: Antibacterial activity against Prevotella intermedia assessed as resistant isolates by CLSI agar dilution method; type: functional
# [37] = test system: Prevotella melaninogenica; assay: Antibacterial activity against Prevotella melaninogenica assessed as resistant isolates by CLSI agar dilution method; type: functional
# Veillonella parvula = assay: Antibacterial activity against Veillonella parvula by CLSI agar dilution method; type: functional
# Clostridium perfringens = assay: microbe, parasite or virus in culture; type: functional
# [38] = test system: Clostridium paraputrificum; assay: Antibacterial activity against beta-lactamase producing Clostridium paraputrificum by CLSI agar dilution method; type: functional
# Clostridium septicum [39] = assay: Antibacterial activity against beta-lactamase producing Clostridium septicum by CLSI agar dilution method; type: functional
# Clostridium tertium [40] = assay: Antibacterial activity against beta-lactamase producing Clostridium tertium by CLSI agar dilution method; type: functional
# [41] = test system: Clostridium paraputrificum; assay: Antibacterial activity against beta-lactamase producing Clostridium paraputrificum assessed as susceptible isolates by CLSI agar dilution method; type: functional
# Clostridium septicum [42] = assay: Antibacterial activity against beta-lactamase producing Clostridium septicum assessed as susceptible isolates by CLSI agar dilution method; type: functional
# Clostridium tertium [43] = assay: Antibacterial activity against beta-lactamase producing Clostridium tertium assessed as susceptible isolates by CLSI agar dilution method; type: functional
# Bacteroides fragilis [44] = assay: Antibacterial activity against Bacteroides fragilis by CLSI agar dilution method; type: functional
# [45] = test system: Bacteroides thetaiotaomicron; assay: Antibacterial activity against beta-lactamase producing Bacteroides thetaiotaomicron by CLSI agar dilution method; type: functional
# [46] = test system: Clostridium paraputrificum; assay: Antibacterial activity against beta-lactamase producing Clostridium paraputrificum assessed as resistant isolates by CLSI agar dilution method; type: functional
# Clostridium septicum [47] = assay: Antibacterial activity against beta-lactamase producing Clostridium septicum assessed as resistant isolates by CLSI agar dilution method; type: functional
# Clostridium tertium [48] = assay: Antibacterial activity against beta-lactamase producing Clostridium tertium assessed as resistant isolates by CLSI agar dilution method; type: functional
# [49] = test system: Peptostreptococcus anaerobius; assay: Antibacterial activity against beta-lactamase producing Peptostreptococcus anaerobius by CLSI agar dilution method; type: functional
# [50] = test system: Peptostreptococcus anaerobius; assay: Antibacterial activity against beta-lactamase producing Peptostreptococcus anaerobius assessed as susceptible isolates by CLSI agar dilution method; type: functional
# [51] = test system: Peptostreptococcus anaerobius; assay: Antibacterial activity against beta-lactamase producing Peptostreptococcus anaerobius assessed as resistant isolates by CLSI agar dilution method; type: functional
# Parvimonas micra [52] = assay: Antibacterial activity against beta-lactamase producing Micromonas micros by CLSI agar dilution method; type: functional
# Parvimonas micra [53] = assay: Antibacterial activity against beta-lactamase producing Micromonas micros assessed as susceptible isolates by CLSI agar dilution method; type: functional
# Parvimonas micra [54] = assay: Antibacterial activity against beta-lactamase producing Micromonas micros assessed as resistant isolates by CLSI agar dilution method; type: functional
# [55] = test system: Peptoniphilus asaccharolyticus; assay: Antibacterial activity against beta-lactamase producing Peptoniphilus asaccharolyticus by CLSI agar dilution method; type: functional
# [56] = test system: Peptoniphilus asaccharolyticus; assay: Antibacterial activity against beta-lactamase producing Peptoniphilus asaccharolyticus assessed as susceptible isolates by CLSI agar dilution method; type: functional
# [57] = test system: Peptoniphilus asaccharolyticus; assay: Antibacterial activity against beta-lactamase producing Peptoniphilus asaccharolyticus assessed as resistant isolates by CLSI agar dilution method; type: functional
# Finegoldia magna [58] = assay: Antibacterial activity against beta-lactamase producing Finegoldia magna by CLSI agar dilution method; type: functional
# Finegoldia magna [59] = assay: Antibacterial activity against beta-lactamase producing Finegoldia magna assessed as susceptible isolates by CLSI agar dilution method; type: functional
# Finegoldia magna [60] = assay: Antibacterial activity against beta-lactamase producing Finegoldia magna assessed as resistant isolates by CLSI agar dilution method; type: functional
structure (smiles),measurement,setting,value
C[C@@H](O)[C@H]1C(=O)N2C(C(=O)O)=C(S[C@@H]3CN[C@H](CNS(N)(=O)=O)C3)[C@H](C)[C@H]12 [DORIPENEM],Activity,Bacteroides fragilis [1],88%
same,Activity,Bacteroides fragilis [2],7%
same,Activity,[3],97%
same,Activity,[4],0%
same,MIC50,Phocaeicola vulgatus [5],1 µg/mL
same,MIC90,Phocaeicola vulgatus [5],2 µg/mL
same,Activity,Phocaeicola vulgatus [6],92%
same,Activity,Phocaeicola vulgatus [7],4%
same,MIC50,Bacteroides uniformis [8],1 µg/mL
same,MIC90,Bacteroides uniformis [8],2 µg/mL
same,Activity,Bacteroides uniformis [9],92%
same,Activity,Bacteroides uniformis [10],4%
same,MIC50,Bacteroides caccae [11],1 µg/mL
same,MIC90,Bacteroides caccae [11],2 µg/mL
same,Activity,Bacteroides caccae [12],92%
same,Activity,Bacteroides caccae [13],4%
same,MIC50,Fusobacterium varium [14],0.12 µg/mL
same,MIC90,Fusobacterium varium [14],0.25 µg/mL
same,MIC50,Fusobacterium nucleatum [15],0.12 µg/mL
same,MIC90,Fusobacterium nucleatum [15],0.25 µg/mL
same,MIC50,Fusobacterium mortiferum [16],0.12 µg/mL
same,MIC90,Fusobacterium mortiferum [16],0.25 µg/mL
same,MIC50,[17],0.12 µg/mL
same,MIC90,[17],0.25 µg/mL
same,Activity,Fusobacterium varium [18],100%
same,Activity,Fusobacterium nucleatum [19],100%
same,Activity,Fusobacterium mortiferum [20],100%
same,Activity,[21],100%
same,Activity,Fusobacterium varium [22],0%
same,Activity,Fusobacterium nucleatum [23],0%
same,Activity,Fusobacterium mortiferum [24],0%
same,Activity,[25],0%
same,MIC50,Prevotella buccae [26],0.25 µg/mL
same,MIC90,Prevotella buccae [26],0.5 µg/mL
same,MIC50,Prevotella bivia [27],0.25 µg/mL
same,MIC90,Prevotella bivia [27],0.5 µg/mL
same,MIC50,Prevotella intermedia [28],0.25 µg/mL
same,MIC90,Prevotella intermedia [28],0.5 µg/mL
same,MIC50,[29],0.25 µg/mL
same,MIC90,[29],0.5 µg/mL
same,Activity,Prevotella buccae [30],100%
same,Activity,Prevotella bivia [31],100%
same,Activity,Prevotella intermedia [32],100%
same,Activity,[33],100%
same,Activity,Prevotella buccae [34],0%
same,Activity,Prevotella bivia [35],0%
same,Activity,Prevotella intermedia [36],0%
same,Activity,[37],0%
same,MIC,Veillonella parvula,0.06 µg/mL
same,MIC,Clostridium perfringens,0.03 µg/mL
same,MIC50,Clostridium perfringens,0.03 µg/mL
same,MIC90,Clostridium perfringens,2 µg/mL
same,MIC,[38],0.03 µg/mL
same,MIC50,[38],0.03 µg/mL
same,MIC90,[38],2 µg/mL
same,MIC,Clostridium septicum [39],0.03 µg/mL
same,MIC50,Clostridium septicum [39],0.03 µg/mL
same,MIC90,Clostridium septicum [39],2 µg/mL
same,MIC,Clostridium tertium [40],0.03 µg/mL
same,MIC50,Clostridium tertium [40],0.03 µg/mL
same,MIC90,Clostridium tertium [40],2 µg/mL
same,Activity,[41],100%
same,Activity,Clostridium septicum [42],100%
same,Activity,Clostridium tertium [43],100%
same,MIC50,Bacteroides fragilis [44],0.5 µg/mL
same,MIC90,Bacteroides fragilis [44],8 µg/mL
same,MIC,[45],0.5 µg/mL
same,MIC50,[45],0.5 µg/mL
same,MIC90,[45],2 µg/mL
same,Activity,[46],0%
same,Activity,Clostridium septicum [47],0%
same,Activity,Clostridium tertium [48],0%
same,MIC50,[49],0.06 µg/mL
same,MIC90,[49],0.5 µg/mL
same,Activity,[50],100%
same,Activity,[51],0%
same,MIC50,Parvimonas micra [52],0.06 µg/mL
same,MIC90,Parvimonas micra [52],0.5 µg/mL
same,Activity,Parvimonas micra [53],100%
same,Activity,Parvimonas micra [54],0%
same,MIC50,[55],0.06 µg/mL
same,MIC90,[55],0.5 µg/mL
same,Activity,[56],100%
same,Activity,[57],0%
same,MIC50,Finegoldia magna [58],0.06 µg/mL
same,MIC90,Finegoldia magna [58],0.5 µg/mL
same,Activity,Finegoldia magna [59],100%
same,Activity,Finegoldia magna [60],0%
